Laboratory results from US20070275911A1, “Targeted Drug-Formaldehyde Conjugates and Methods of Making and Using the Same” (priority 2003, published 2007).

How the values were obtained:
MCF-7/Adr cells [1] = assay: Uptake and release by flow cytometry; type: cell-based, human; conditions: for drug uptake (DOX fluorophore): 500 nM, 20, 40 and 60 min
Protocol: Uptake and release of DOX-TEG-TAM: The uptake of 500 nM DOX, DOXSF, and DOX-TEG-TAM following treatment for various times up to 1 h was assessed by flow cytometry. […] The release of drugs following a 500 nM treatment for 1 h was assessed at various times out to 6 h post-treatment. Resistant MCF-7/Adr cells were first assessed as they provide a means to evaluate the AEBS targeting hypothesis to explain the dramatic improvement in tumor cell growth inhibition observed for DOX-TEG-TAM relative to DOXSF and clinical DOX. […] In all three cases the drug fluorescence decreased dramatically up to 1 h post-treatment, as free drug was transported from the cell. […] The enhanced uptake and retention of DOX-TEG-TAM relative to DOX and DOXSF parallels the growth inhibition data of Example 4 and provides evidence in favor of the targeting hypothesis involving interaction with AEBS.
(§1) Uptake and release of DOX, DOXSF, and DOX-TEG-TAM: The uptake and release of DOX-TEG-TAM in breast cancer cells relative to DOX and untargeted DOXSF was performed as described with modifications. Breast cancer cells in log phase growth were dissociated with trypsin-EDTA, counted, resuspended in media at 1.5×10^5 cells/mL, and plated into six well plates (450,000 cells/well) and allowed to adhere overnight. The cells were treated with 0.5 μM DOX, DOXSF, or DOX-TEG-TAM for various amounts of time (20 min, 40 min, and 60 min). Drug treatment was accomplished by addition of 30 μL of 100× drug solution (50 μM) to 3 mL of media which was mixed and immediately added to the cells. For each time point, the media was removed, cells were trypsinized, and trypsinization was quenched with 3 mL phenol red-free RPMI 1640 media (no serum) at 4° C. Cells were pelleted by centrifugation at 300 g for 5 min at 10° C. The supernatant was decanted and the cells were re-suspended in 1 mL serum- and phenol red-free RPMI 1640 media and placed on ice.
For drug retention samples, the cells were treated for 1 h with 0.5 μM DOX, DOXSF, or DOX-TEG-TAM. Following drug treatment, the media was removed and replaced with 3 mL fresh, 37° C., full (containing serum and phenol red indicator) cell media and the cells were incubated for various times (0.5 h, 1 h, 3 h, and 6 h). Following the allotted release times, the cells were prepared as described above. […]
(§2) The extent of drug uptake and retention was measured by flow cytometry. Cells were analyzed with excitation at 488 nm (15 mW Ar ion laser), with emission monitored between 570 and 600 nm. Instrument settings were optimized for each cell line and held constant for all experiments; 10,000 cells were analyzed for anthracycline fluorescence. The data are presented as the mean fluorescence for each condition with the background, drug-free cell fluorescence subtracted.

Rtx-6 cells = assay: Growth inhibition of Rtx-6 cells, 4 h treatment; type: cell-based
Protocol: Effect of DOX-TEG-TAM on AEBS-negative Rtx-6 breast cancer cells: Rtx-6 cells, kindly provided by Dr. Marc Poirot (Toulouse, France), were evaluated as an AEBS-negative control cell line. […] The Rtx-6 cells were utilized to determine the effect of the absence of AEBS on the cytotoxicity and uptake of DOX, DOXSF, and DOX-TEG-TAM.
The IC50's are compared in Table 6 with those previously determined for MCF-7, MCF-7/Adr, MDA-MB-231 and MDA-MB-435 cells. The concentrations inhibiting 50% of cell growth following 4 h treatment with DOX, DOXSP, and DOX-TEG-TAM were 200 nM, 60 nM, and 70 nM, respectively.
Growth inhibition of Rtx-6 cells: The concentration inhibiting half the growth (IC50) was determined as previously described with minor modifications.

MDA-MB-435 cells [2] = assay: Uptake, release and competition by flow cytometry; type: cell-based, human; conditions: for decrease of uptake in the presence of tamoxifen: 10 μM tamoxifen competitor
Protocol: Additionally, uptake and release data were obtained for DOX, DOXSF, and DOX-TEG-TAM in estrogen receptor-negative MDA-MB-435 and MDA-MB-231 cells.
Competitive inhibition of drug uptake: If DOX-TEG-TAM targeting is AEBS mediated, the presence of a competitive ligand should inhibit uptake.
as §1
For drug retention samples, the cells were treated for 1 h with 0.5 μM DOX, DOXSF, or DOX-TEG-TAM. Following drug treatment, the media was removed and replaced with 3 mL fresh, 37° C., full (containing serum and phenol red indicator) cell media and the cells were incubated for various times (0.5 h, 1 h, 3 h, and 6 h). Following the allotted release times, the cells were prepared as described above. Drug treatment was performed such that all cell samples would be prepared within 2 h.
as §2
The cell samples were prepared and analyzed by flow cytometry as described above.

MCF-7/Adr cells [3] = assay: Breast cancer cell growth inhibition, 4 h treatment
Protocol: (§3) Breast cancer cell growth inhibition: The ER-targeted DOX-formaldehyde conjugates, 11a-c, were evaluated against four breast cancer cell lines that differ in terms of estrogen receptor and multidrug resistance expression. MCF-7 cells are human breast adenocarcinoma cells that express estrogen receptor at a level of 195,000 sites/cell. MCF-7/Adr cells are an ER-negative, doxorubicin-resistant variant of the parent MCF-7 that express the multidrug resistance (MDR) phenotype. MDA-MB-231 and MDA-MB-435 are ER-negative human breast adenocarcinoma and ductal carcinoma cells, respectively. All cytotoxins were formulated as 100× solutions in DMSO/1% AcOH and delivered to cells as 1% DMSO (0.01% AcOH) in cell culture medium. In all experiments cell treatment lasted 4 h.
(§4) In Vitro cellular growth inhibition experiments: The IC50 for the targeted formaldehyde conjugates and all control compounds were performed as previously described with minor modifications. All compounds were solubilized in dimethylsulfoxide containing 1% v/v acetic acid. The concentrations of all 100× DMSO/1% AcOH drug solutions was determined spectrophotometrically by absorbance at 480 nm (ε=[…]). […] For every experiment each drug level and controls were performed in hexuplicate; each experiment was performed in at least duplicate. Error bars represent one standard deviation about the mean for the six wells per lane measured for each drug concentration.

MDA-MB-435 = assay: as above
Protocol: as §3, §4

MDA-MB-435 cells [4] = assay: Drug distribution by fluorescence microscopy; type: cell-based, human; conditions: for cellular distribution of fluorescence: 500 nM
Protocol: Furthermore, once the trigger has fired the DOX fluorophore should appear nuclear.
Analysis of drug distribution by fluorescence microscopy: MDA-MB-435 cells in log phase growth were dissociated with trypsin-EDTA and counted. Cells were suspended in media at 8.3×10^4 cells/mL and 3 mL of cell solution was aliquoted into 6 well plates and allowed to adhere overnight. The cells were treated with 0.5 μM DOX, DOXSF, or DOX-TEG-TAM for various amounts of time (5 min, 20 min, 40 min, 1 h, and 3 h). Drug treatment was accomplished by addition of 30 μL of 100× drug solution (50 μM) to 3 mL of media which was mixed and immediately added to the cells.
Following drug treatment, the media was removed and cells were washed once with 3 mL of serum- and phenol red-free RPMI 1640 at room temperature and 3 mL of the same media was then added back to each well. The cells were then immediately analyzed by fluorescence microscopy. Each condition was performed individually to minimize the amount of time between drug treatment and fluorescence detection.

[5] = MCF-7/Adr (−/+/+), 4 h treatment

Compound | drug uptake (DOX fluorophore) (MCF-7/Adr cells [1]) | drug retention (MCF-7/Adr cells [1]; 6 h after 1 h treatment with 500 nM) | IC50 (Rtx-6 cells) [nM] | fold uptake more than DOX (MDA-MB-435 cells [2]; MDA-MB-435) [fold] | fold uptake more than DOXSF (MDA-MB-435 cells [2]; MDA-MB-435) [fold] | effect of estradiol on uptake (MDA-MB-435 cells [2]; MDA-MB-435, 20 nM estradiol) | uptake as % of uptake in the absence of competitor (MDA-MB-435 cells [2]; MDA-MB-435, 0.5 μM drug, 1 h, 10 μM tamoxifen) [%] | fluorophore retention vs DOXSF or DOX (MDA-MB-435 cells [2]; MDA-MB-435, after 1 h treatment with 500 nM) | fold more active than doxorubicin (MCF-7/Adr cells [3]; MCF-7/Adr) [fold] | fold more cytotoxic than untargeted doxsaliform (MCF-7/Adr cells [3]; MCF-7/Adr) [fold] | IC50 (MCF-7/Adr cells [3]; [5]) [nM] | IC50 (MDA-MB-435; MDA-MB-435 (−/+/−), 4 h treatment, listed as DOX-TEG-TAM) [nM] | cellular distribution of fluorescence (MDA-MB-435 cells [4]; 20 min) | cellular distribution of fluorescence (MDA-MB-435 cells [4]; 3 h) | decrease of uptake in the presence of tamoxifen (MDA-MB-435 cells [2]; MDA-MB-435, 0.5 μM drug, 1 h) [%] | cytotoxicity relative to 11a-c (MDA-MB-435; MDA-MB-435) | IC50 (MDA-MB-435; MDA-MB-435 (−/+/−), 4 h treatment) [nM] | localization pattern (MDA-MB-435 cells [4]; control experiment, 0.5 μM) | IC50 (MCF-7/Adr cells [3]; Homo sapiens, NCI/ADR-RES, 4 h) [nM] | IC50 (MDA-MB-435; Homo sapiens, MDA-MB-435, 4 h) [nM]
CC/C(=C(/c1ccc(O)cc1)c1ccc(OCCN(C)CCOCCOCCO/N=C/c2ccc(O)c(C(=O)NCN[C@H]3C[C@H](O[C@H]4C[C@](O)(C(=O)CO)Cc5c(O)c6c(c(O)c54)C(=O)c4c(OC)cccc4C6=O)O[C@@H](C)[C@H]3O)c2)cc1)c1ccccc1 [11c, E/Z-N-(2-Hydroxy-5-{[2-(2-{2-[(2-{4-[1-(4-hydroxy-phenyl)-2-phenyl-but-1-enyl]-phenoxy}-ethyl)-methyl-amino]-ethoxy}-ethoxy)-ethoxyimino]-methyl}-benzamide)-doxorubicin] | almost twice as much | maintained a higher level of drug retention relative to DOX and DOXSF | 70 | 5 | 3 | no effect | 47 | retained to a greater extent | 140 | 28 | 60 ± 9 | 40 ± 6 | cytosolic fluorescence was observed | predominantly nuclear | – | – | – | – | – | –
COc1cccc2c1C(=O)c1c(O)c3c(c(O)c1C2=O)C[C@@](O)(C(=O)CO)C[C@@H]3O[C@H]1C[C@H](NCNC(=O)c2ccccc2O)[C@H](O)[C@H](C)O1 [doxsaliform, N-(2-Hydroxybenzamido-methyl)-doxorubicin] | one relative fluorescent unit | – | 60 | – | – | – | – | – | – | – | 2000 ± 320 | – | – | – | 6 | equally cytotoxic | 50 ± 9 | exclusively nuclear | – | –
COc1cccc2c1C(=O)c1c(O)c3c(c(O)c1C2=O)C[C@@](O)(C(=O)CO)C[C@@H]3O[C@H]1C[C@H](N)[C@H](O)[C@H](C)O1 [doxorubicin, reference compound] | one relative fluorescent unit | – | 200 | – | – | – | – | – | – | – | – | – | observed in the nucleus | exclusively nuclear | 8 | – | – | – | 10000 ± 1300 | 150 ± 14
